Results taken from ChEMBL document CHEMBL1141075, “4-Oxo-4,7-dihydrothieno[2,3-b]pyridines as non-nucleoside inhibitors of human cytomegalovirus and related herpesvirus polymerases” (J Med Chem, 2005).

Key:
[1] = system: HFF; experiment: Antiviral activity against human cytomegalovirus (Davis strain) grown on human foreskin fibroblast cells determined by reduction in plaque formation upon incubation at 37 degrees C with the compound dissolved in DMSO; format: functional, cell-based
[2] = target: T1, DNA polymerase catalytic subunit (Human cytomegalovirus (strain AD169) (HHV-5) (Human herpesvirus 5), UniProt P08546); experiment: Inhibition of human cytomegalovirus DNA polymerase (95 uL) activity in a solution containing […] HEPES (pH 7.5), incubation for 12 minutes at 26 degrees C; set-up: species or system Human betaherpesvirus 5
T1 sequence (P08546 whole entry): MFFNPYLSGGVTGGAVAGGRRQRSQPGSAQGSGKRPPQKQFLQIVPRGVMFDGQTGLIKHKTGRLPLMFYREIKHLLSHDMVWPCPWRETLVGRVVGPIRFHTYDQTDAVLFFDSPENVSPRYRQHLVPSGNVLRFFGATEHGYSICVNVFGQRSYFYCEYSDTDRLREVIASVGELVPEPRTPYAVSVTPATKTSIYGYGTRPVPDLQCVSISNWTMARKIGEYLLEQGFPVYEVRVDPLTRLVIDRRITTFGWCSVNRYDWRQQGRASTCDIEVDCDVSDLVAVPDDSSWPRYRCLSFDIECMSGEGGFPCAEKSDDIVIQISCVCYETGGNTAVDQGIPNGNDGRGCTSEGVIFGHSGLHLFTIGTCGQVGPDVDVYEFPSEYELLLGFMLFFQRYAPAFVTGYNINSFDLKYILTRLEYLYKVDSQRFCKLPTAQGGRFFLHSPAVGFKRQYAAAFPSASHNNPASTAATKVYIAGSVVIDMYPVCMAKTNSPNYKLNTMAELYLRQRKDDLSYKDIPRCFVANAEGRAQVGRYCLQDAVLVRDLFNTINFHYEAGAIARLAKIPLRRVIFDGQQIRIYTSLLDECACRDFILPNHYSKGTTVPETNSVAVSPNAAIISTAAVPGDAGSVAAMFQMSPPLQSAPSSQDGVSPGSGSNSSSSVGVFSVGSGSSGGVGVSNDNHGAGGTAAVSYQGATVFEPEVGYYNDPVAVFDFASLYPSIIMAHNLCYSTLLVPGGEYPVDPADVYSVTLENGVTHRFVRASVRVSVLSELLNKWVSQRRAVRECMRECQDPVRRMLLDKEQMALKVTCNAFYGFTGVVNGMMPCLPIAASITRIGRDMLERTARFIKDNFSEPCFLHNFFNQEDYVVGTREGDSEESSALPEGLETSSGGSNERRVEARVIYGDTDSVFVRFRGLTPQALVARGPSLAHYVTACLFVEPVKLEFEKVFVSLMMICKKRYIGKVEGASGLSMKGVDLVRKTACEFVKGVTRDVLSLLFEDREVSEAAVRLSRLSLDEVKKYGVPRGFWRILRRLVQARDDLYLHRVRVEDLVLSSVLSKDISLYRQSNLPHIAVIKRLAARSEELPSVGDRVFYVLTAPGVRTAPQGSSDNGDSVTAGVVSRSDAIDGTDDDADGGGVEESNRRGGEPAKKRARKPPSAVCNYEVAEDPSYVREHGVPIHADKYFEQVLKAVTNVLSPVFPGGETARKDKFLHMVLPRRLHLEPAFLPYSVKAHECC

[3] = target: T2, DNA polymerase alpha catalytic subunit (Homo sapiens, UniProt P09884); experiment: Inhibition of human alpha DNA polymerase (95 uL) activity in a solution containg […] HEPES (pH 7.5) upon incubation for 12 minutes at 26 degrees C with the compound dissolved in DMSO
T2 sequence (P09884 whole entry): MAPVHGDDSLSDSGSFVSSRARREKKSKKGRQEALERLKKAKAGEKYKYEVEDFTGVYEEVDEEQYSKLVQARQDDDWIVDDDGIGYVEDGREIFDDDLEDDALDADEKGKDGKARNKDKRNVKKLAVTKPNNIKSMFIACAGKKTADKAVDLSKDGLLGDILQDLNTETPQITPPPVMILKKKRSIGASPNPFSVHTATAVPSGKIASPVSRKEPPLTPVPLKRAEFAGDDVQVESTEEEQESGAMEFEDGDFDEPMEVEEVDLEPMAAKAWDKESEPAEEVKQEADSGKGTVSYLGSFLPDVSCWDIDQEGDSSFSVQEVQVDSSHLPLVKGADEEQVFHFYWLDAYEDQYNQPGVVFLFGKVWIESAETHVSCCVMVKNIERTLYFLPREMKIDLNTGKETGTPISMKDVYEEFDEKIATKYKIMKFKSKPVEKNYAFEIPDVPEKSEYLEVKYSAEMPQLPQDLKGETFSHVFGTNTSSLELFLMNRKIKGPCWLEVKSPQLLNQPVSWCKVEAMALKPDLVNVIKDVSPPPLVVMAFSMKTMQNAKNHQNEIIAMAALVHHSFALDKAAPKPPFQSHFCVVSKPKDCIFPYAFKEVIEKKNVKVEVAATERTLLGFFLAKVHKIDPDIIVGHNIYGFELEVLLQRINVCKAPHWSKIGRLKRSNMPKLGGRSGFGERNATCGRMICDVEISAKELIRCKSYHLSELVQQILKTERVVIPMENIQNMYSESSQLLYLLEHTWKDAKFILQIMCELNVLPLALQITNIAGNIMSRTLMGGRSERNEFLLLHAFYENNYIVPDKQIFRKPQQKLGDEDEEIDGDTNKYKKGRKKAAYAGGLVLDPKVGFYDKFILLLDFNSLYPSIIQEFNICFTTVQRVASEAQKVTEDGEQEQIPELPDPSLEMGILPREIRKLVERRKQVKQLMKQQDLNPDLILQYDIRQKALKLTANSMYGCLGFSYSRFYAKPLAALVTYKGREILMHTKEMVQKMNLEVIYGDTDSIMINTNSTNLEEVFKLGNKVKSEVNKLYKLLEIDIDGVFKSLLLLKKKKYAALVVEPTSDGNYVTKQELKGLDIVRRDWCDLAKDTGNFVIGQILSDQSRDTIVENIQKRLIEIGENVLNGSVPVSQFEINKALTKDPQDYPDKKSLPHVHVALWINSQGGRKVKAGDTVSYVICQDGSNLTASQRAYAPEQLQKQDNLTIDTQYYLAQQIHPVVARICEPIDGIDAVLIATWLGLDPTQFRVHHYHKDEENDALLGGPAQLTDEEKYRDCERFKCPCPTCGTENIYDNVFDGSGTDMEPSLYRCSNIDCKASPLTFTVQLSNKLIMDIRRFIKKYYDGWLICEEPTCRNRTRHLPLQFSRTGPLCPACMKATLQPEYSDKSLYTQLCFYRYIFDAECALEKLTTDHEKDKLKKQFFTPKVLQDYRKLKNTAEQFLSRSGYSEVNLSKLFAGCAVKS

[4] = target: T3, DNA polymerase delta catalytic subunit (Homo sapiens, UniProt P28340); experiment: Inhibition of human delta DNA polymerase (95 uL) activity in a solution containg […] HEPES (pH 7.5) upon incubation for 12 minutes at 26 degrees C with the compound dissolved in DMSO
T3 sequence (P28340 whole entry): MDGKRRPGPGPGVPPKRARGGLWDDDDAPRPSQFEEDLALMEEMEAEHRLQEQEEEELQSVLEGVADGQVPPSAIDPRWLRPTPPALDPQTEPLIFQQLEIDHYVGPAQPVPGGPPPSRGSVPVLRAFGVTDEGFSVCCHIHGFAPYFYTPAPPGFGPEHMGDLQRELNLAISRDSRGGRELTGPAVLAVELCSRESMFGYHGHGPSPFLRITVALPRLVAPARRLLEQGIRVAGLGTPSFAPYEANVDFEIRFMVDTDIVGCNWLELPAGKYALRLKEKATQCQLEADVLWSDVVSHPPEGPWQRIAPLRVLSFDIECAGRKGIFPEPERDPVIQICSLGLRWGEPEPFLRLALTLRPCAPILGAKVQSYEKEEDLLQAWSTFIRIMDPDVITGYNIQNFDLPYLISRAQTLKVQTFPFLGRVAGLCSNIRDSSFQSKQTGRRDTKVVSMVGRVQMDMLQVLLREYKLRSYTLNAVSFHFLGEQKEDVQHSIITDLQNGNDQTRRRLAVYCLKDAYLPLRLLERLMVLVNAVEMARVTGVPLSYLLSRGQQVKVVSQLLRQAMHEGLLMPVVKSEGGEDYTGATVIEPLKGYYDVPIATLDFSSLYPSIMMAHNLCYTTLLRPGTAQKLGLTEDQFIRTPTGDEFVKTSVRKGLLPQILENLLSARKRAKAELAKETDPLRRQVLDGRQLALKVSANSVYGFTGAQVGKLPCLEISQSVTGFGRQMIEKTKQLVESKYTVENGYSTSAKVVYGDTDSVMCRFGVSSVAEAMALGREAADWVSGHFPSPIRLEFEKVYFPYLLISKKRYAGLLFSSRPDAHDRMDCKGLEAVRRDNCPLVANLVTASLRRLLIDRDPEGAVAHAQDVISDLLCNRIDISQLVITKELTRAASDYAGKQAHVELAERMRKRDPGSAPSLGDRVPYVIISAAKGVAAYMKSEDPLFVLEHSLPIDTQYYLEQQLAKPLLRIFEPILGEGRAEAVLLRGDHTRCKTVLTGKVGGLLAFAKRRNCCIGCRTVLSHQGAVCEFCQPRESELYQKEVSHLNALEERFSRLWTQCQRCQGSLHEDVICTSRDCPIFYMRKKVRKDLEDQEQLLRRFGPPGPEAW

SMILES	IC50 [2] [nM]	IC50 [1] [nM]	other results
Cn1cc(C(=O)NCc2ccc(Cl)cc2)c(=O)c2cc(C#CCO)sc21		1400	
O=C(NCc1ccc(Cl)cc1)c1cnc2sc(CCCO)cc2c1O		> 20000	
Cn1cc(C(=O)NCc2ccc(Cl)cc2)c(=O)c2cc(CCCCO)sc21	430		
Cc1cn([C@H]2C[C@H](N=[N+]=[N-])[C@@H](CO[P@](=O)(O)O[P@](=O)(O)OP(=O)(O)O)O2)c(=O)[nH]c1=O [ZIDOVUDINE TRIPHOSPHATE]			IC50 [3]: 13400 nM
CCN(CC)CCn1cc(C(=O)NCc2ccc(Cl)cc2)c(=O)c2cc(C#CCO)sc21	1800	3800	
Cn1cc(C(=O)NCc2ccc(Cl)cc2)c(=O)c2cc(CCCCCO)sc21	9700		
C[C@@]1(CO)[C@H](O)CC[C@@]2(C)[C@H]1CC[C@H]1C[C@@H]3C[C@@]12CC[C@]3(O)CO [APHIDICOLIN]			IC50 [4]: > 40000 nM
CC(C)n1cc(C(=O)NCc2ccc(Cl)cc2)c(=O)c2cc(CCCO)sc21		1300	
O=C(O)P(=O)(O)O [FOSCARNET]			IC50 [3]: > 20000 nM; IC50 [4]: > 20000 nM
CCn1cc(C(=O)NCc2ccc(Cl)cc2)c(=O)c2cc(C#CCO)sc21		1700	
CCn1cc(C(=O)NCc2ccc(Cl)cc2)c(=O)c2cc(CCCO)sc21		2300	
CC(C)n1cc(C(=O)NCc2ccc(Cl)cc2)c(=O)c2cc(C#CCO)sc21		2700	
CCN(CC)CCn1cc(C(=O)NCc2ccc(Cl)cc2)c(=O)c2cc(CCCO)sc21		900	

Now from value to compound, other results behind:

IC50 [2] [nM]	SMILES	IC50 [1] [nM]	other results
750	O=C(NCc1ccc(Cl)cc1)c1cn(CCO)c2sc(CCCO)cc2c1=O	1800	
22000	Cn1cc(C(=O)NCc2ccc(Cl)cc2)c(=O)c2cc(C#CCCCO)sc21		
2700	O=C(NCc1ccc(Cl)cc1)c1cnc2sc(C#CCO)cc2c1O	> 20000	
1100	O=C(NCc1ccc(Cl)cc1)c1cn(CCO)c2sc(C#CCO)cc2c1=O	2300	
9500	Cn1cc(C(=O)NCc2ccc(Cl)cc2)c(=O)c2cc(C#CCCO)sc21		
4000	Cn1cc(C(=O)NCc2ccc(Cl)cc2)c(=O)c2cc(CCO)sc21		
